According to the supplement of paper PMC10307832:

Experiments:
Assay in all cases: relative viability (nuclei count vs DMSO), 5 days (fraction); higher = more cells survive
[1] = compound: COc1cc2ncn(-c3cc(OCc4ccccc4C(F)(F)F)c(C(N)=O)s3)c2cc1OC + Cc1cc(Nc2cc(N3CCN(C)CC3)nc(Sc3ccc(NC(=O)C4CC4)cc3)n2)n[nH]1 [Tozasertib] (partner 0.1 µM)
How it was run: (§1)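 One day after seeding in 1536-well plates, lung cancer cell lines were dosed by pin tool. Dosing was either single-drug or a fixed anchor-drug dose plus five library-drug doses (not always all listed) in √10 steps. After 5 days, nuclei were stained in one fix-and-stain step and counted on 4× images, and relative viability is the nuclei count of treated wells over that of vehicle wells, given as the median of duplicate plates.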

[2] = compound: COc1cc2ncn(-c3cc(OCc4ccccc4C(F)(F)F)c(C(N)=O)s3)c2cc1OC + Cc1nc(Nc2ncc(C(=O)Nc3c(C)cccc3Cl)s2)cc(N2CCN(CCO)CC2)n1 [Dasatinib] (partner 0.075 µM)
How it was run: as §1

[3] = compound: COc1cc2ncn(-c3cc(OCc4ccccc4C(F)(F)F)c(C(N)=O)s3)c2cc1OC + COc1cc2c(Oc3ccc(NC(=O)C4(C(=O)Nc5ccc(F)cc5)CC4)cc3F)ccnc2cc1OCCCN1CCOCC1 [Foretinib] (partner 0.25 µM)
How it was run: as §1

[4] = compound: COc1cc2ncn(-c3cc(OCc4ccccc4C(F)(F)F)c(C(N)=O)s3)c2cc1OC + N=C(N)NC(=N)NCCc1ccccc1 [Phenformin] (partner 250 µM)
How it was run: as §1

[5] = compound: COc1cc2ncn(-c3cc(OCc4ccccc4C(F)(F)F)c(C(N)=O)s3)c2cc1OC + COc1cccc2cc(-c3nc([C@H]4CC[C@H](C(=O)O)CC4)n4ncnc(N)c34)[nH]c12 [OSI-027] (partner 0.5 µM)
How it was run: as §1

[6] = compound: COc1cc2ncn(-c3cc(OCc4ccccc4C(F)(F)F)c(C(N)=O)s3)c2cc1OC + CCNC(=O)c1noc(-c2cc(C(C)C)c(O)cc2O)c1-c1ccc(CN2CCOCC2)cc1 [Luminespib] (partner 0.01 µM)
How it was run: as §1

[7] = compound: COc1cc2ncn(-c3cc(OCc4ccccc4C(F)(F)F)c(C(N)=O)s3)c2cc1OC
How it was run: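 Only plates meeting two conditions passed: control CV below 25% and at least one doubling. Lung cancer cell lines, kept overnight at 37 °C in 1536-well plates, were pinned with five library-drug doses (not always all listed) √10 apart on vehicle-anchored plates and grown 5 days without medium change. A one-step fix, permeabilisation and Hoechst stain preceded 4× imaging and MetaXpress nuclear counting. Viability equals treated-well nuclei divided by vehicle-well nuclei, as the median over plates.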

## NCI-H1623
[1]; first compound 0.05 µM
  relative viability: 0.438
[1]; first compound 0.1581 µM
  relative viability: 0.382
[1]; first compound 0.5 µM
  relative viability: 0.386
[1]; first compound 5 µM
  relative viability: 0.399
[2]; first compound 0.05 µM
  relative viability: 0.525
[2]; first compound 0.1581 µM
  relative viability: 0.447
[2]; first compound 0.5 µM
  relative viability: 0.508
[2]; first compound 5 µM
  relative viability: 0.557
[3]; first compound 0.05 µM
  relative viability: 0.824
[3]; first compound 0.1581 µM
  relative viability: 0.723
[3]; first compound 0.5 µM
  relative viability: 0.62
[3]; first compound 1.581 µM
  relative viability: 0.426
[3]; first compound 5 µM
  relative viability: 0.694
[4]; first compound 0.05 µM
  relative viability: 0.588
[4]; first compound 0.1581 µM
  relative viability: 0.395
[4]; first compound 0.5 µM
  relative viability: 0.463
[4]; first compound 5 µM
  relative viability: 0.576
[5]; first compound 0.05 µM
  relative viability: 0.478
[5]; first compound 0.1581 µM
  relative viability: 0.429
[5]; first compound 0.5 µM
  relative viability: 0.376
[5]; first compound 1.581 µM
  relative viability: 0.281
[5]; first compound 5 µM
  relative viability: 0.349
[6]; first compound 0.05 µM
  relative viability: 0.49
[6]; first compound 0.1581 µM
  relative viability: 0.485
[6]; first compound 0.5 µM
  relative viability: 0.435
[6]; first compound 5 µM
  relative viability: 0.37
[7]; 0.05 µM
  relative viability: 0.962
[7]; 0.1581 µM
  relative viability: 0.975
[7]; 0.5 µM
  relative viability: 0.694
[7]; 1.581 µM
  relative viability: 0.439
[7]; 5 µM
  relative viability: 0.758
